Test results published in patent US20100255001A1, “BLOCKERS OF SEROTONIN AND ITS RECEPTORS FOR THE TREATMENT OF HEPATITIS” (priority 2007, published 2010).

Experiments:
[1] = test system: LCMV; format: in vivo, C57BL/6 mice; conditions: 2×10^4 pfu LCMV, serotonin 5 mg/mouse/day
[2] = Serotonin treatment without infection, effect on liver

## NCCc1c[nH]c2ccc(O)cc12 [serotonin]
[1]
  time of maximum ALT level after infection: 10 days
[1]; eight days after infection, vehicle treated mice cleared LCMV by day 8
  replicating virus in liver (viral titers): high levels of replicating virus
[1]; maximum at day 10 after infection
  ALT levels in the serum: more than 1000 U/I
[2]
  effect on the liver without infection: harmless to the liver
